{"source": "PubChem BioAssay AID180", "about": "(DTP/NCI, 2004)", "tested_on": "BDF1 mice, Adenocarcinoma 755 s.c., tumor weight T/C", "experiment": "NCI In Vivo Anticancer Drug Screen. Data for tumor model Adenocarcinoma 755 (subcutaneous) in B6D2F1 (BDF1) mice", "conditions": "endpoint: mean tumor weight, higher = larger tumour", "in_short": "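Compound activity was tested in mice carrying transplanted tumors. Survival or tumor size was measured, and each value is the treated-group measurement divided by that of the vehicle-treated control group (T/C).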", "note": "“And” between values parts separate entries of the source, which are not always exact repeats. Equal values may be shown once."}
{"smiles": "CCOC(N)=O", "values": [{"measurement": "T/C", "setting": "dose: 62.5 mg/kg/injection, schedule: Q#A X022 (ip), vehicle: saline", "result": "52 % of control"}, {"measurement": "T/C", "setting": "dose: 62.62 mg/kg/injection, schedule: Q01DX011 (ip), vehicle: carboxymethylcellulose (CMC)", "result": "79 % of control"}, {"measurement": "T/C", "setting": "dose: 102.5 mg/kg/injection, schedule: Q01DX011 (ip), vehicle: carboxymethylcellulose (CMC)", "result": "94 % of control"}, {"measurement": "T/C", "setting": "dose: 125.0 mg/kg/injection, schedule: Q01DX001 (ip), vehicle: saline", "result": "121 % of control"}, {"measurement": "T/C", "setting": "dose: 125.0 mg/kg/injection, schedule: Q01DX006 (iv), vehicle: saline", "result": "75 % of control"}, {"measurement": "T/C", "setting": "dose: 125.0 mg/kg/injection, schedule: Q01DX011 (im), vehicle: saline", "result": "83 % of control"}, {"measurement": "T/C", "setting": "dose: 125.0 mg/kg/injection, schedule: Q01DX011 (ip), vehicle: methylcellulose (MC)", "result": "85 % of control"}, {"measurement": "T/C", "setting": "dose: 125.0 mg/kg/injection, schedule: Q01DX011 (ip), vehicle: saline", "result": "68 % of control"}, {"measurement": "T/C", "setting": "dose: 125.0 mg/kg/injection, schedule: Q01DX011 (sc), vehicle: saline", "result": "96 % of control"}, {"measurement": "T/C", "setting": "dose: 125.0 mg/kg/injection, schedule: Q07DX002 (ip), vehicle: saline", "result": "104 % of control"}, {"measurement": "T/C", "setting": "dose: 125.0 mg/kg/injection, schedule: Q#A X022 (ip), vehicle: saline", "result": "59 % of control"}, {"measurement": "T/C", "setting": "dose: 125.25 mg/kg/injection, schedule: Q01DX011 (ip), vehicle: carboxymethylcellulose (CMC)", "result": "63 % of control"}, {"measurement": "T/C", "setting": "dose: 200.4 mg/kg/injection, schedule: Q01DX011 (ip), vehicle: carboxymethylcellulose (CMC)", "result": "41 % of control and 50 % of control"}, {"measurement": "T/C", "setting": "dose: 205.0 mg/kg/injection, schedule: Q01DX011 (ip), vehicle: carboxymethylcellulose (CMC)", "result": "116 % of control"}, {"measurement": "T/C", "setting": "dose: 250.0 mg/kg/injection, schedule: Q01DX001 (ip), vehicle: saline", "result": "92 % of control and 93 % of control"}, {"measurement": "T/C", "setting": "dose: 250.0 mg/kg/injection, schedule: Q01DX006 (iv), vehicle: saline", "result": "74 % of control"}, {"measurement": "T/C", "setting": "dose: 250.0 mg/kg/injection, schedule: Q01DX011 (im), vehicle: saline", "result": "65 % of control"}, {"measurement": "T/C", "setting": "dose: 250.0 mg/kg/injection, schedule: Q01DX011 (ip), vehicle: methylcellulose (MC)", "result": "53 % of control"}, {"measurement": "T/C", "setting": "dose: 250.0 mg/kg/injection, schedule: Q01DX011 (ip), vehicle: saline", "result": "51 % of control"}, {"measurement": "T/C", "setting": "dose: 250.0 mg/kg/injection, schedule: Q01DX011 (oral), vehicle: saline", "result": "69 % of control"}, {"measurement": "T/C", "setting": "dose: 250.0 mg/kg/injection, schedule: Q01DX011 (sc), vehicle: saline", "result": "67 % of control"}, {"measurement": "T/C", "setting": "dose: 250.0 mg/kg/injection, schedule: Q07DX002 (ip), vehicle: saline", "result": "85 % of control"}, {"measurement": "T/C", "setting": "dose: 250.0 mg/kg/injection, schedule: Q#A X022 (ip), vehicle: saline", "result": "9 % of control"}, {"measurement": "T/C", "setting": "dose: 328.0 mg/kg/injection, schedule: Q01DX011 (ip), vehicle: carboxymethylcellulose (CMC)", "result": "41 % of control and 52 % of control"}, {"measurement": "T/C", "setting": "dose: 375.0 mg/kg/injection, schedule: Q03DX004 (ip), vehicle: saline", "result": "59 % of control"}, {"measurement": "T/C", "setting": "dose: 500.0 mg/kg/injection, schedule: Q01DX001 (ip), vehicle: saline", "result": "110 % of control and 85 % of control"}, {"measurement": "T/C", "setting": "dose: 500.0 mg/kg/injection, schedule: Q01DX006 (iv), vehicle: saline", "result": "38 % of control"}, {"measurement": "T/C", "setting": "dose: 500.0 mg/kg/injection, schedule: Q01DX011 (im), vehicle: saline", "result": "32 % of control"}, {"measurement": "T/C", "setting": "dose: 500.0 mg/kg/injection, schedule: Q01DX011 (ip), vehicle: methylcellulose (MC)", "result": "33 % of control"}, {"measurement": "T/C", "setting": "dose: 500.0 mg/kg/injection, schedule: Q01DX011 (ip), vehicle: saline", "result": "19 % of control"}, {"measurement": "T/C", "setting": "dose: 500.0 mg/kg/injection, schedule: Q01DX011 (oral), vehicle: saline", "result": "20 % of control"}, {"measurement": "T/C", "setting": "dose: 500.0 mg/kg/injection, schedule: Q01DX011 (sc), vehicle: saline", "result": "42 % of control"}, {"measurement": "T/C", "setting": "dose: 500.0 mg/kg/injection, schedule: Q07DX002 (ip), vehicle: saline", "result": "83 % of control"}, {"measurement": "T/C", "setting": "dose: 501.0 mg/kg/injection, schedule: Q01DX011 (ip), vehicle: carboxymethylcellulose (CMC)", "result": "17 % of control and 27 % of control"}, {"measurement": "T/C", "setting": "dose: 546.6 mg/kg/injection, schedule: Q01DX011 (ip), vehicle: carboxymethylcellulose (CMC)", "result": "22 % of control and 23 % of control"}, {"measurement": "T/C", "setting": "dose: 750.0 mg/kg/injection, schedule: Q03DX004 (ip), vehicle: saline", "result": "54 % of control"}, {"measurement": "T/C", "setting": "dose: 820.0 mg/kg/injection, schedule: Q01DX011 (ip), vehicle: carboxymethylcellulose (CMC)", "result": "10 % of control and 20 % of control"}, {"measurement": "T/C", "setting": "dose: 1000.0 mg/kg/injection, schedule: Q01DX001 (ip), vehicle: saline", "result": "49 % of control and 64 % of control"}, {"measurement": "T/C", "setting": "dose: 1000.0 mg/kg/injection, schedule: Q01DX006 (iv), vehicle: saline", "result": "21 % of control"}, {"measurement": "T/C", "setting": "dose: 1000.0 mg/kg/injection, schedule: Q07DX002 (ip), vehicle: saline", "result": "69 % of control"}]}
